Assay results from patent publication US7084261B2, “Pegylated T1249 polypeptide” (Hoffmann-La Roche Inc., priority 2002, dated 2006).
In brackets after ≈: the same amount, converted by molar mass. Read-outs that look alike come from different tables or passages of the source.

Key:
[1] = Pharmacokinetics of T1249 in rats after a single subcutaneous or intravenous dose; format: in vivo; conditions: both sexes, Sprague-Dawley, blood, rat; for half-life: read-out: T1/2terminal (converted)
Protocol: Each treatment group, consisted of 9 Sprague-Dawley rats (Charles River Laboratories, Wilmington, Del.) per sex. Each member of the group received a single subcutaneous or intravenous dose of T1249 (batch 2 referenced in Example 9/Table 5). […]
Blood samples were collected from test animals over a twelve hour time period from three rats per sex per group at each time point. The time points were 0.5, 1, 2, 4, 6, 8,10, and 12 hours after dose administration.
The blood samples were analyzed using a T1249 PcAb ECLIA assay. T1249 PcAb ECLIA is a noncompetitive, two site immunoassay that utilizes two different preparations of rabbit PcAb specific for T1249. In this assay, T1249 determinations are preformed by first incubating the diluted test sample in a tube that also contains biotin-labeled antibody (preparation A) and ruthenium-labeled antibody (preparation B). In the next step, streptavidin-coated magnetic beads are added to the tube in order to capture the antibody-peptide-antibody immune complexes (sandwiches) that have formed. The mixture is then pumped through a flow-cell in the analyzer, after which an electrical current is applied to […] adjacent to the flow-cell. Light is generated through cyclical oxidation-reduction reactions between the ruthenium metal ions that are conjugated to the detector antibodies and tripropylamine ions that are present in excess in the assay buffer. This light energy is the measured end-point. A sample containing an appreciable amount of T1249 presents a higher signal compared to a sample containing little or no T1249.

HIV-1 = system: HIV-1
Source text: The number of stained nuclei can thus be interpreted as equal to the number of infectious virions in the challenge inoculum if there is only one round of infection prior to staining.

With `CC[C@H](C)[C@H](NC(=O)[C@H](CCC(N)=O)NC(=O)[C@H](C)NC(=O)[C@H](CCC(N)=O)NC(=O)[C@H](CCC(=O)O)NC(=O)[C@H](CC(C)C)NC(=O)[C@H](CC(C)C)NC(=O)[C@H](C)NC(=O)[C@@H](NC(=O)[C@@H](NC(=O)[C@H](CCCCN)NC(=O)[C@H](CCC(N)=O)NC(=O)[C@H](CCC(=O)O)NC(=O)[C@H](Cc1c[nH]c2ccccc12)NC(=O)[C@H](CCC(=O)O)NC(=O)[C@H](CCC(N)=O)NC(=O)[C@@H](N)Cc1c[nH]c2ccccc12)[C@@H](C)CC)[C@@H](C)O)C(=O)N[C@@H](CCC(N)=O)C(=O)N[C@@H](CCC(N)=O)C(=O)N[C@@H](CCC(=O)O)C(=O)N[C@@H](CCCCN)C(=O)N[C@@H](CC(N)=O)C(=O)N[C@@H](CCC(=O)O)C(=O)N[C@@H](Cc1ccc(O)cc1)C(=O)N[C@@H](CCC(=O)O)C(=O)N[C@@H](CC(C)C)C(=O)N[C@@H](CCC(N)=O)C(=O)N[C@@H](CCCCN)C(=O)N[C@@H](CC(C)C)C(=O)N[C@@H](CC(=O)O)C(=O)N[C@@H](CCCCN)C(=O)N[C@@H](Cc1c[nH]c2ccccc12)C(=O)N[C@@H](C)C(=O)N[C@@H](CO)C(=O)N[C@@H](CC(C)C)C(=O)N[C@@H](Cc1c[nH]c2ccccc12)C(=O)N[C@@H](CCC(=O)O)C(=O)N[C@@H](Cc1c[nH]c2ccccc12)C(=O)N[C@@H](Cc1ccccc1)C(N)=O` [Example T1249] the AUC(0-inf) ([1]; 1.2 mg/kg (SC)) was 27600 ng·h/mL, the AUC(0-t) ([1]; 1.2 mg/kg (SC)) was 27000 ng·h/mL and the Cmax ([1]; 1.2 mg/kg (SC)) was 6370 ng/mL. The Tmax ([1]; 1.2 mg/kg (SC)) was 1.09 h, the half-life ([1]; 1.2 mg/kg (SC)) was 2.02 h and the AUC(0-inf) ([1]; 1.5 mg/kg (IV)) was 47100 ng·h/mL. It also gave an AUC(0-t) ([1]; 1.5 mg/kg (IV)) of 45600 ng·h/mL, a Cmax ([1]; 1.5 mg/kg (IV)) of 15700 ng/mL and a half-life ([1]; 1.5 mg/kg (IV)) of 2.46 h. The AUC(0-inf) ([1]; 5.0 mg/kg (IV)) was 120000 ng·h/mL, the AUC(0-t) ([1]; 5.0 mg/kg (IV)) was 118000 ng·h/mL and the Cmax ([1]; 5.0 mg/kg (IV)) was 46300 ng/mL. The half-life ([1]; 5.0 mg/kg (IV)) was 1.86 h, the AUC(0-inf) ([1]; 15 mg/kg (SC)) was 110000 ng·h/mL and the AUC(0-t) ([1]; 15 mg/kg (SC)) was 107000 ng·h/mL. For the same molecule, the Cmax ([1]; 15 mg/kg (SC)) was 21500 ng/mL, the Tmax ([1]; 15 mg/kg (SC)) was 1.88 h and the half-life ([1]; 15 mg/kg (SC)) was 2 h. For the same molecule, the IC50 (HIV-1; 50% reduction in infectious virus titer) was 0.003 µg/mL (≈ 0.601 nM) and the IC90 (HIV-1; 90% reduction in infectious titer) was 0.023 µg/mL (≈ 4.6 nM).
